Data as given in ChEMBL document CHEMBL1201862, “PubChem BioAssay data set” (2004).
Calls of active or inactive are those of the source.

Tests used:
[1] = test system: Vero; experiment: Vero E6 cell cytotoxicity, SAR follow-up, cytotoxicity control for West Nile virus antiviral project, synthesized analogs (AID 2244); format: functional; details: Chlorocebus sabaeus
[2] = inhibitors of firefly luciferase expression or activity, dose response, H4 neuroglioma cells, luminescence (AID 1990); format: functional, cell-based
[3] = test system: BJ; experiment: cytotoxicity toward BJ-TERT fibroblasts, dose response, cell-based, RAS-independent, luminescence (AID 1933); format: functional; details: Homo sapiens
[4] = Luminescence Cell-Based Dose Response HTS to Identify Inhibitors of 5'UTR Stem-Loop Driven Prion Protein mRNA Translation in H4 Neuroglioblastoma Cells. [Related pubchem assays: 1827 (Project Summary), 1813 (Primary HTS)]; format: functional
[5] = inhibitors of SNCA 5'UTR-driven reporter translation, confirmation, H4 neuroglioma cells, luminescence (AID 1988); format: functional, cell-based
[6] = target: T1, Alkaline phosphatase, tissue-nonspecific isozyme (Homo sapiens, UniProt P05186)
T1 sequence (P05186 whole entry): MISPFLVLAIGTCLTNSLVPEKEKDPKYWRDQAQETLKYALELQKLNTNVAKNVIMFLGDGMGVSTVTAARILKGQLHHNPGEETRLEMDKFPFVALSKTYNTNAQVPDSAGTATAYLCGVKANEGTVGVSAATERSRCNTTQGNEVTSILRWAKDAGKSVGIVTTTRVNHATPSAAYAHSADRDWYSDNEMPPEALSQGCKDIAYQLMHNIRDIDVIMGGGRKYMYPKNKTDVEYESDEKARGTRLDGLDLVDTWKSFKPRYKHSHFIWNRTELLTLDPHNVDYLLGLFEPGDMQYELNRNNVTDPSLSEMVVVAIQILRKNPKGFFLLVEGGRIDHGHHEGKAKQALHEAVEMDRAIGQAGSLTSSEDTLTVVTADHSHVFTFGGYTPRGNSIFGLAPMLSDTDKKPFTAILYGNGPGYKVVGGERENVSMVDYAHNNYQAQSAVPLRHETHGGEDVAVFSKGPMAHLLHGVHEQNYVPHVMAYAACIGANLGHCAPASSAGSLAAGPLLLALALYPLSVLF

[7] = test system: BJ; experiment: cells; format: functional, cell-based; details: Homo sapiens
[8] = test system: BJ; experiment: cytotoxicity toward BJ-TERT-LT-ST fibroblasts, dose response, cell-based, RAS-independent, luminescence (AID 1935); format: functional; details: Homo sapiens;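 note: BJ fibroblasts immortalized with TERT plus LT and ST oncogenes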
[9] = cytotoxicity toward DRD oncogenic fibroblasts, dose response, cell-based, non-viral oncogenic, luminescence (AID 1934); format: functional; details: Homo sapiens
[10] = luciferase reporter signal reduction – luminescence, H4-C neuroglioblastoma cells, dose response (AID 2458); format: functional, cell-based;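 note: H4 neuroglioblastoma cells stably carrying a luciferase reporter gene fusion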
[11] = cells; format: functional, cell-based
[12] = Luminescence-based dose response cell-based high throughput screening assay for cytotoxic compounds using the IEC-6 intestinal epithelial cell line. [Related pubchem assays: 1858 (Summary AID.), 1825 (Counterscreen.), 1907 (Confirmation screen.)]; format: functional
[13] = inhibitors of SNCA 5'UTR-driven translation, confirmation, luminescence, H4 neuroglioblastoma cells, dose confirmation (AID 2454); format: functional, cell-based;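 note: H4 neuroglioblastoma cells carrying an alpha-synuclein 5'UTR luciferase reporter; potency for inhibition of the luciferase signal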
[14] = test system: BJ; experiment: cytotoxicity toward Ras-transformed BJeLR fibroblasts, dose response, cell-based, alamar blue fluorescence, cherrypicked samples (AID 2631); format: functional; details: Homo sapiens;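 note: confirmatory dose-response assay in RAS-dependent BJ fibroblasts engineered with TERT, LT and ST, with cytotoxicity read by fluorescence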
[15] = target: Luciferin 4-monooxygenase (Photinus pyralis, UniProt P08659); experiment: Counter Screen for Luciferase-based Assay Positives. [Related pubchem assays: 620, 618, 411 ]
Chain of Luciferin 4-monooxygenase (P08659 whole entry): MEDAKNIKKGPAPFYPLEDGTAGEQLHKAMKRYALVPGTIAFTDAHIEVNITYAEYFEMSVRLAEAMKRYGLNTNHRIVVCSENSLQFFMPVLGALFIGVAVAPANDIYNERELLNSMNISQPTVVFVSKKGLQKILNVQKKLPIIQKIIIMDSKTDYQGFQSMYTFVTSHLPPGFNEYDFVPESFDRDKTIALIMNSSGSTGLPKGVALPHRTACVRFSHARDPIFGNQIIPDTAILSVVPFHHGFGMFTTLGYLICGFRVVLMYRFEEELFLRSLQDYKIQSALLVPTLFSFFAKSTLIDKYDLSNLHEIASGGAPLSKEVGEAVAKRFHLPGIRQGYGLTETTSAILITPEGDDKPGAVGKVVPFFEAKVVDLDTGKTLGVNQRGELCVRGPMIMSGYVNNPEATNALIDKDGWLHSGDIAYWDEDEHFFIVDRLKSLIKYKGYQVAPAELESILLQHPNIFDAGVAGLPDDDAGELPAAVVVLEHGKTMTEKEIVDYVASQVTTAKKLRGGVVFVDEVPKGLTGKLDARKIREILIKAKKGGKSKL

[16] = test system: HT-1080; experiment: cytotoxicity in HT1080 fibrosarcoma cells, cell-based, fluorescence readout (AID 620); format: functional; details: Homo sapiens
[17] = test system: HEK293; experiment: inhibitors of LMP1-driven NF-kB reporter, dose response, cell-based, HEK293, luciferase, cherry-pick (AID 588343); format: functional; details: Homo sapiens
[18] = A549 cell cytotoxicity, dose response, cytotoxicity control, plate reader, cherry-pick, antagonist series (AID 743412); format: functional, cell-based
[19] = HepG2 cell cytotoxicity, dose response, cytotoxicity control, plate reader, cherry-pick, antagonist series (AID 743416); format: functional, cell-based
[20] = LGR2 antagonists, dose response, cell-based, HEK293, CRE-luciferase reporter, cherry pick, set 2 (AID 743343); format: functional;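 note: transfected cells were stimulated with diluted bursicon conditioned medium after compound addition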
[21] = MC4R antagonists, dose response, counter-screen for LGR2 antagonist project, cell-based, plate reader, cherry pick (AID 743444); format: functional;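 note: transfected HEK 293 cells stimulated with alpha-MSH peptide; potency of inhibitors of the alpha-MSH evoked signal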
[22] = HEK293 cell cytotoxicity, dose response, cytotoxicity control, plate reader, cherry-picked samples (AID 743446); format: functional, cell-based
[23] = target: Cytochrome P450 2C19 (Homo sapiens, UniProt P33261); experiment: qHTS Assay for Inhibitors and Substrates of Cytochrome P450 2C19. [Related pubchem assays: 410 ]; format: ADME; details: read-out: Potency
Chain of Cytochrome P450 2C19 (P33261 whole entry): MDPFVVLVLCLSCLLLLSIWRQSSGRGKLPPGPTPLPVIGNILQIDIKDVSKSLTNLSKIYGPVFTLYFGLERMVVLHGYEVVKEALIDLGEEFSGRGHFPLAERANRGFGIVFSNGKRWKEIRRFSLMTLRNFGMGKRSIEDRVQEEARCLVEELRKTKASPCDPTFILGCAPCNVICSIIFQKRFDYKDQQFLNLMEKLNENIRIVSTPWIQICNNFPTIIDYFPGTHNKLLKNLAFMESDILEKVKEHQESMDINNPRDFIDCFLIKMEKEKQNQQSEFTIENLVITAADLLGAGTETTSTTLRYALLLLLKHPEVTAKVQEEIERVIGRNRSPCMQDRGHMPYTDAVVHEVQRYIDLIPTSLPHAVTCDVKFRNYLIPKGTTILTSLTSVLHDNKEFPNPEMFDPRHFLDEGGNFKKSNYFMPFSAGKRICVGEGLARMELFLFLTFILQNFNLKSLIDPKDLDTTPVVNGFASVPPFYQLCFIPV

[24] = target: Cytochrome P450 2D6 (Homo sapiens, UniProt P10635); experiment: qHTS Assay for Inhibitors and Substrates of Cytochrome P450 2D6. [Related pubchem assays: 410 ]; format: ADME; details: read-out: Potency
Chain of Cytochrome P450 2D6 (P10635 whole entry): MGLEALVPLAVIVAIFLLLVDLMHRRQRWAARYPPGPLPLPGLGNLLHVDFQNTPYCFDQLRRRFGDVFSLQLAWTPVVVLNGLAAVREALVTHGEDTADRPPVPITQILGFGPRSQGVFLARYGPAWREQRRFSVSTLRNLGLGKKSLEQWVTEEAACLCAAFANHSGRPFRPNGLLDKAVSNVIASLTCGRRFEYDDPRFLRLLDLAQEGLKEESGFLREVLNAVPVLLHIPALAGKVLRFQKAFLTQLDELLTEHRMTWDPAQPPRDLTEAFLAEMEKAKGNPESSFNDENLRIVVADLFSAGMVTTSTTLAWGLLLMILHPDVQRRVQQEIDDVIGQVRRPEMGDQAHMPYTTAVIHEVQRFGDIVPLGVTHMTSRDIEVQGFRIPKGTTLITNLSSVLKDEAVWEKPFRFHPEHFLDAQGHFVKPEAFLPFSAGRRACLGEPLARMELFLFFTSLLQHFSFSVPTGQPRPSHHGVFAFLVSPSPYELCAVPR

[25] = target: Cytochrome P450 3A4 (Homo sapiens, UniProt P08684); details: Potency;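 note: confirmatory qHTS run detecting inhibitors and substrates of CYP3A4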
Chain of Cytochrome P450 3A4 (P08684 whole entry): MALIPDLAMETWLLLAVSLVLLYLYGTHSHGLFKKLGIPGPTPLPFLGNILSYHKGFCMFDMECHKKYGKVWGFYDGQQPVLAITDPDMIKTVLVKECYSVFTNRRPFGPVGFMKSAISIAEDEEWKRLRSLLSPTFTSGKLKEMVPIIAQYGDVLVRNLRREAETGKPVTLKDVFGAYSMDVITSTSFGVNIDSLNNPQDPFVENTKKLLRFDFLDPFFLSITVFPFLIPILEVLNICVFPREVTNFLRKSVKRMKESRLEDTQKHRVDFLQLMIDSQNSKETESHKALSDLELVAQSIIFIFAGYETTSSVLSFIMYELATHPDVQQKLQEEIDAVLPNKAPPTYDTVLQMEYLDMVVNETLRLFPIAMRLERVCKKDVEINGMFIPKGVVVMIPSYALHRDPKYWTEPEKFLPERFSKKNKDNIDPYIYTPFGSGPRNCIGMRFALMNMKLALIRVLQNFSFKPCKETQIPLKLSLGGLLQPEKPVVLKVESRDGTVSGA

[26] = target: Cytochrome P450 2C9 (Homo sapiens, UniProt P11712); details: Potency
Chain of Cytochrome P450 2C9 (P11712 whole entry): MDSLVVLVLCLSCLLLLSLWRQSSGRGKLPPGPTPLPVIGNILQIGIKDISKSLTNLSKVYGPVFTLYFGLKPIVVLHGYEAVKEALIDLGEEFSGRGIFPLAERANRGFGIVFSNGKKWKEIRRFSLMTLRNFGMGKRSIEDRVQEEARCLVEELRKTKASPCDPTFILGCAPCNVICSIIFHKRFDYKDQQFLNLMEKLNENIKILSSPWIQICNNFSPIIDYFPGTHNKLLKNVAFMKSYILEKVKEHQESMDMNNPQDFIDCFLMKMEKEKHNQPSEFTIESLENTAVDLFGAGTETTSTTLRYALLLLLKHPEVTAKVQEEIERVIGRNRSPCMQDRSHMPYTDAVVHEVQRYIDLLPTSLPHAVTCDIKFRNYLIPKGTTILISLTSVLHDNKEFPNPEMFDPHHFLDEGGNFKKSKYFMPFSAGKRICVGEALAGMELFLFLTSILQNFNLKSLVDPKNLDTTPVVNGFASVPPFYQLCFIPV

[27] = target: T2, Leucine aminopeptidase (Plasmodium falciparum 3D7, UniProt Q8IL11); experiment: P. falciparum M17LAP inhibitors, primary screen, biochemical, fluorogenic H-Leu-NHMec substrate, 1536-well (AID 1619); format: functional
T2 sequence (Q8IL11 whole entry): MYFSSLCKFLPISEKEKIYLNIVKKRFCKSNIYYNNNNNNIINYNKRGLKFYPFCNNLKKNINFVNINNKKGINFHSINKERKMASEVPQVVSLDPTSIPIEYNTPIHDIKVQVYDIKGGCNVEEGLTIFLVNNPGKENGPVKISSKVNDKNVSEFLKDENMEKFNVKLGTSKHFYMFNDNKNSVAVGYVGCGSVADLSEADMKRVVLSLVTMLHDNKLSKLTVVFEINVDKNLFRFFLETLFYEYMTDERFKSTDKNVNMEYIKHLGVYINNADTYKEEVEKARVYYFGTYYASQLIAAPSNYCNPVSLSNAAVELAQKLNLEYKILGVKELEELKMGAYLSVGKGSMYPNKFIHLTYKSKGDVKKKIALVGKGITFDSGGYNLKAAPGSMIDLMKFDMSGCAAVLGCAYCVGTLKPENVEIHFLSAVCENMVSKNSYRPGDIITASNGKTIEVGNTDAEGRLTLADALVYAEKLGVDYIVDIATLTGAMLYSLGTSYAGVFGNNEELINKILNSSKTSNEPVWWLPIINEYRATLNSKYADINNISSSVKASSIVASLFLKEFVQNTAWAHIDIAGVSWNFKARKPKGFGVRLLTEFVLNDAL

[28] = target: T3, Heat shock factor protein 1 (Mus musculus, UniProt P38532); experiment: inhibition of MG132-induced HSE-luciferase signal, confirmation, cell-based, NIH3T3, luminescence, dose retest (AID 2382); format: functional;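 note: NIH3T3 fibroblasts with HSF1-driven luciferase reporter stressed by proteasome inhibitor MG132; luminescence from HSF1-driven luciferase expression after 8 hours of MG132 stress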
T3 sequence (P38532 whole entry): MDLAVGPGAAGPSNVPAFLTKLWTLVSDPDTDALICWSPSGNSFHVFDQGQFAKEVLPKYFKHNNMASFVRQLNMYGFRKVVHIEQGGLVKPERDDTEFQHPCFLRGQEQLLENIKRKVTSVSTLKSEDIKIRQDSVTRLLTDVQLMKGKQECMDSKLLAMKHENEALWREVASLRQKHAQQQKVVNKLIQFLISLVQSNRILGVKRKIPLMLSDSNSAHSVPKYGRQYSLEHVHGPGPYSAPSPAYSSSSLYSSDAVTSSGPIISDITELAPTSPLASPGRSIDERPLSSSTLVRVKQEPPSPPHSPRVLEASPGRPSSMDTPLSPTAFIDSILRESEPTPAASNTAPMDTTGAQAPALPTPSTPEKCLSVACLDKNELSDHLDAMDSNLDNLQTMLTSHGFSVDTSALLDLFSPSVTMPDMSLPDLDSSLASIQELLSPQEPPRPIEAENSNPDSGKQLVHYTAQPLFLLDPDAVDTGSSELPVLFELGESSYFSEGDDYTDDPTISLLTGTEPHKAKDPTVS

[29] = Shn3 3'UTR reporter inhibitors, dose response, cell-based, Clone20 osteoblasts, firefly luciferase, cherry-picked (AID 624132); format: functional;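 note: firefly luciferase luminescence from reporter carrying the Shn3 3'UTR in osteoblasts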
[30] = HepG2 cell cytotoxicity, dose response, cytotoxicity control for Shn3 inhibitor project, CellTiter-Glo, cherry-picked (AID 624134); format: functional, cell-based
[31] = control 3'UTR Renilla luciferase suppression, dose response, counter-screen for Shn3 inhibitor project, cell-based, Clone20-Shn3RL, cherry-picked (AID 624133); format: functional
[32] = test system: HeLa; experiment: HeLa cell cytotoxicity, dose response, cytotoxicity control, 24 h, cherry-picked samples (AID 504726); format: functional, cell-based; details: Homo sapiens;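 note: potency for cytotoxicity as loss of luminescence signal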
[33] = target: Caspase-6 (Homo sapiens, UniProt P55212); experiment: human caspase-6 inhibitors, dose response, biochemical, VEID-R110 fluorescence, cherry-pick (AID 720632)
Chain of Caspase-6 (P55212 24-179 limits assumed): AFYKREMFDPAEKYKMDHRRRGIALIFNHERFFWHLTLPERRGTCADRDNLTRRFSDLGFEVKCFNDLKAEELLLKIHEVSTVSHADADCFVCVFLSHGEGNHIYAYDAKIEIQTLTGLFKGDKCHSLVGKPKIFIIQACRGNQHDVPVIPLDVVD
Chain of Caspase-6 (P55212 194-293 limits assumed): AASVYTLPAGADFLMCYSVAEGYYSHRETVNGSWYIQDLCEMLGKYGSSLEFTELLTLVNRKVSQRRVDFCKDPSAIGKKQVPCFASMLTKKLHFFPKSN

[34] = target: T4, Histone-lysine N-methyltransferase NSD2 (Homo sapiens, UniProt O96028); format: biochemical
T4 sequence (O96028 whole entry): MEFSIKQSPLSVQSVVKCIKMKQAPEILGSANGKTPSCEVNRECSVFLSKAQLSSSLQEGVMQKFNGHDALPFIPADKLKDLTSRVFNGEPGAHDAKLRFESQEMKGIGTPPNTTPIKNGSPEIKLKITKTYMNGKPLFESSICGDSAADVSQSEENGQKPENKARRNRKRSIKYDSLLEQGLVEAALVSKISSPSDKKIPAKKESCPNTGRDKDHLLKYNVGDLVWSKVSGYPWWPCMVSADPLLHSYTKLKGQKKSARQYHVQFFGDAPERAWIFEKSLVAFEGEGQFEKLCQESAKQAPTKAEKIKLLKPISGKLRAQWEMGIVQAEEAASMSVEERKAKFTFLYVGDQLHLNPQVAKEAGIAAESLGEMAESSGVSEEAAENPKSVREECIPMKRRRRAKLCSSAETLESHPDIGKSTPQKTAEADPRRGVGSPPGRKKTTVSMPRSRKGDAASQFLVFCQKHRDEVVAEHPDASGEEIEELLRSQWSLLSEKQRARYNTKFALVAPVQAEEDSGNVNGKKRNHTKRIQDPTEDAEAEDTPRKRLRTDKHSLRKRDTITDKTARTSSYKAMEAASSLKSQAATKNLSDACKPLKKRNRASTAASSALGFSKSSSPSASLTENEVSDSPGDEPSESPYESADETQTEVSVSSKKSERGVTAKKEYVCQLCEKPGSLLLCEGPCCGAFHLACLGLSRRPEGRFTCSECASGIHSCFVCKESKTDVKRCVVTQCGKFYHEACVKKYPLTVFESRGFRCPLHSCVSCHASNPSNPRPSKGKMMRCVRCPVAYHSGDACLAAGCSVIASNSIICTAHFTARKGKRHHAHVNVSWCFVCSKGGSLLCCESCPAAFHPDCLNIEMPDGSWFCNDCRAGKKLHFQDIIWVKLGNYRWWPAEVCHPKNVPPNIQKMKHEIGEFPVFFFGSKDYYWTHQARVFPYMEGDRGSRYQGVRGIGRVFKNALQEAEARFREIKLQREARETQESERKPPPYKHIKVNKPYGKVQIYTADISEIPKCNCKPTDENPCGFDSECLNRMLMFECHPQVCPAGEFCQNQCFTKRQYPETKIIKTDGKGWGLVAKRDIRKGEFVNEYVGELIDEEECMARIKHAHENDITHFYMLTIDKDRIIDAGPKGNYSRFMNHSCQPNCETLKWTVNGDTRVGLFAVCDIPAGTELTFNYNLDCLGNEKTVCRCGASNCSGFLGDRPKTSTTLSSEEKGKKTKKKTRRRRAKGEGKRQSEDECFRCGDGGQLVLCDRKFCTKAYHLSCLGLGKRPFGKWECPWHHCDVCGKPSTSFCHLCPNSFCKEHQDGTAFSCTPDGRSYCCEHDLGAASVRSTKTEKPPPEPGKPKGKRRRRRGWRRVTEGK

O=C(Nc1nc(-c2ccc(Cl)cc2)cs1)c1ccccc1Cl
active: CC50 [1] > 40 µM

COc1cccc2sc(Nc3nc4ccc(NC(C)=O)cc4s3)nc12
> 150 µM (not active): EC50 [8]
> 120 µM (not active): EC50 [2]
active: EC50 [3] 67.8 µM | EC50 [4] 12.6 µM | EC50 [5] 10.7 µM | EC50 [7] 28.2 µM | EC50 [9] 30 µM
> 100 µM (not active): EC50 [6]

Cc1cccc2cc(C#N)c(SCC(=O)N3CC(=O)Nc4ccccc43)nc12
inconclusive: EC50 [3] 0.583 µM
active: EC50 [10] 1.59 µM | EC50 [11] 2.36 µM | EC50 [5] < 0.1 µM | EC50 [7] 18 µM | IC50 [12] 0.58 µM | EC50 [8] 0.46 µM | EC50 [9] 0.804 µM | EC50 [13] 1.42 µM | EC50 [14] < 0.104 µM

O=C(Nc1ccc(CN2CCOCC2)cc1)c1cc2ccccn2n1
inactive: AC50 [18] > 52 µM | AC50 [19] > 52 µM
> 50 µM (not active): EC50 [16]
active: EC50 [15] 71.5 µM | AC50 [17] 3.01 µM | AC50 [20] 2.6 µM | AC50 [21] 5.82 µM | AC50 [22] 36 µM

COC(=O)NC(/C(C(=O)OC)=C(\C)NCc1ccccc1)c1ccccc1 (stereo not given)
inconclusive: AC50 [23] 0.0079 µM | AC50 [24] 3.98 µM | AC50 [25] 3.98 µM | AC50 [26] 3.16 µM

c1ccc(-c2cnc(-c3ccccc3)nc2)cc1
active: EC50 [15] 14.3 µM
> 50 µM (not active): EC50 [16]

CCOc1ccc(OCc2cccc(C(=O)O)c2)cc1
inactive: EC50 [14] > 133 µM
active: IC50 [27] 24.8 µM | EC50 [2] < 0.1 µM | EC50 [10] 0.072 µM | EC50 [11] 0.101 µM | EC50 [4] < 0.1 µM | EC50 [28] < 0.16 µM | EC50 [5] < 0.1 µM | EC50 [13] 0.038 µM | AC50 [29] 0.649 µM | AC50 [30] 16.9 µM | AC50 [31] 21.4 µM | AC50 [18] 21.7 µM | AC50 [19] 31 µM | AC50 [20] 0.118 µM | AC50 [21] 0.137 µM | AC50 [22] 18.9 µM

COC(=O)C(/C=C/C(C)Cc1cc(Br)cc(OCc2ccccc2)c1OC)OCc1ccccc1 (stereo not given)
inconclusive: AC50 [25] 3.16 µM | AC50 [26] 3.16 µM

CCN(C(=O)COC(=O)c1ccc([N+](=O)[O-])o1)C1CCCCC1
inactive: AC50 [32] > 350 µM | AC50 [34] > 20 µM
active: AC50 [33] 34.1 µM
